Numbers after ± are expanded uncertainties.
Experiments:
[1] = 101.33 kPa, Liquid
[2] = refractive index (Na D-line) (dimensionless); settings: 101.33 kPa, Liquid, Standard Abbe refractometry

SMILES	mass density ([1]; 288 K) [kg/m3]	refractive index ([2]; 293.15 K)	mass density ([1]; 294 K) [kg/m3]	refractive index ([2]; 292 K)	mass density ([1]; 293.15 K) [kg/m3]
OCCOCCO [diethylene glycol]	1119.74 ± 0.72	1.44724 ± 0.0007			
CC(O)CO (configuration not stated) [1,2-propanediol]		1.43143 ± 0.0007			1032.83 ± 0.48
OCCO [1,2-ethanediol]		1.43184 ± 0.0007			1115.52 ± 0.71

Next, values leading:

mass density ([1]; 288 K) [kg/m3]	refractive index ([2]; 293.15 K)	mass density ([1]; 294 K) [kg/m3]	refractive index ([2]; 292 K)	mass density ([1]; 293.15 K) [kg/m3]	SMILES
		840.24 ± 2.8	1.47247 ± 0.0009		C=C(C)C1CC=C(C)CC1 (configuration not stated) [1-methyl-4-(1-methylethenyl)cyclohexene]
1127.43 ± 0.74	1.45314 ± 0.0007				OCCOCCOCCO [triethylene glycol]
870.04 ± 2.7	1.46272 ± 0.0009				C=CC(C)(O)CCC=C(C)C (configuration not stated) [3,7-dimethyl-1,6-octadien-3-ol]

Reference: the NIST ThermoML archive (doi:10.1021/je700577t)
